The text below walks through data of ChEMBL document CHEMBL2073802, “Increase in doxorubicin cytotoxicity by inhibition of P-glycoprotein activity with lomerizine” (Biol Pharm Bull, 2001).

The target in the series is ATP-dependent translocase ABCB1 (Homo sapiens, UniProt P08183). The experiment in a line: TP_TRANSPORTER: increase in Calcein intracellular accumulation (Calcein: 1 uM, Lomerizine: 10 uM) in K562/DOX cells. Format: functional, cell-based. The note with it: k562/adr.
ATP-dependent translocase ABCB1, sequence (P08183 whole entry): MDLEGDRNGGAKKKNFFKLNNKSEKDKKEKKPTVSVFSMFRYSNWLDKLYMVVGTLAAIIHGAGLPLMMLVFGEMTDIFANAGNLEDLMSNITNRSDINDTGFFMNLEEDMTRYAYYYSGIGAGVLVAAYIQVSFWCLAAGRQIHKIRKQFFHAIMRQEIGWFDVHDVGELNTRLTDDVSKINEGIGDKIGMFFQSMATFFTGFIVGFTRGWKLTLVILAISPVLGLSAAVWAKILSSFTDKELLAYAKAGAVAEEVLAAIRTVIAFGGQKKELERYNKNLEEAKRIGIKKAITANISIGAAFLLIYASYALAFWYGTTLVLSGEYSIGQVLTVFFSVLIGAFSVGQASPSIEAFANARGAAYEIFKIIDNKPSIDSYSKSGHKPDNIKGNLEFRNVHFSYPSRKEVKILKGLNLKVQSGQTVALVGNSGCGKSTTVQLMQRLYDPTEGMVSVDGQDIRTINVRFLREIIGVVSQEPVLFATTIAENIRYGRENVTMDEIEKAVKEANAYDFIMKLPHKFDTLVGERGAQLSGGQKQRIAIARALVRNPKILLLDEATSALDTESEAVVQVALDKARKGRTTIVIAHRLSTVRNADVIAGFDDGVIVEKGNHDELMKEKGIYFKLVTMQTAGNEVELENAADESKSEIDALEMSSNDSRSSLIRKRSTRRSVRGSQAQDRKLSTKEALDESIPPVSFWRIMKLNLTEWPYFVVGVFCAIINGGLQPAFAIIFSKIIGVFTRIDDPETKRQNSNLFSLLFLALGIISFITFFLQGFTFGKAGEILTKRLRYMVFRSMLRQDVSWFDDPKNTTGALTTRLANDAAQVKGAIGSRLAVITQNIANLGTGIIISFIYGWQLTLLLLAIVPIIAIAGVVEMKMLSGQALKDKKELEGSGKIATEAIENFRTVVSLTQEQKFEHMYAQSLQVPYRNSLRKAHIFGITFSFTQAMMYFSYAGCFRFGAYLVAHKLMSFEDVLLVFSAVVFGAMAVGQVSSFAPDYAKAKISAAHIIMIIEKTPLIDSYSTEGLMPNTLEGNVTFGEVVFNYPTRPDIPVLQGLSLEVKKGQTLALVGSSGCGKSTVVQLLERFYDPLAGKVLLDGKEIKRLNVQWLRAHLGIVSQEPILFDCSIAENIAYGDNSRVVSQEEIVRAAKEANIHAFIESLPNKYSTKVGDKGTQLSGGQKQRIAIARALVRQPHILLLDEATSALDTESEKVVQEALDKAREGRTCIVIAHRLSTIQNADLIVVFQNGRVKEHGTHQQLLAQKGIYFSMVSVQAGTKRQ

With `COc1ccc(CN2CCN(C(c3ccc(F)cc3)c3ccc(F)cc3)CC2)c(OC)c1OC` [LOMERIZINE], the Activity result is “inhibitor [+]”.
